Measured values: patent publication US20100303793A1, “COMBINATION THERAPY FOR CARDIAC REVASCULARIZATION AND CARDIAC REPAIR” (The Board of Regents, The University of Texas Syst, priority 2007, published 2010)
One block for each molecule: values may come before it.

Experiments:
[1] = system: 23C53; test: Binding of biotin-conjugated thrombin to complementary peptide 23C53
[2] = system: AC-23; test: Binding of biotin-conjugated thrombin to complementary peptide AC-23
[3] = system: Human coronary artery endothelial (HCAE) cells; test: Invasion of HCAE cells through Matrigel toward bFGF; format: cell-based; settings: bFGF 10 ng/ml, 22 h
Description: (§1) The design of experiments to measure invasion and migration of endothelial cells toward the angiogenic factor bFGF (basic fibroblast growth factor) is shown in FIGS. 5A and 6A, respectively. The standard assay used 5×10^4 cells added to the top of the insert in 250 μl of medium. The lower portion of the apparatus contained 750 μl of medium, plus or minus bFGF. […] Transmembrane cell invasion and migration assays were performed using BD FluoroBlok (BD Bioscience, Bedford, Mass.) inserts coated with BD Matrigel Matrix (a biologically active basement membrane preparation) or with fibronectin, respectively. […] (R&D System, Minneapolis, Minn.) (FGF) or medium alone (CTR) were added to the lower chamber of the insert plate as a chemoattractant. The cells were allowed to invade or migrate for 22 hours. Cells were labeled post invasion or post migration with Calcein AM (4 μg/ml) and the fluorescence of the cells that invaded through the BD Matrigel Matrix or migrated to the underside of the insert membrane was measured using a plate reader at 485 nm (excitation) and 530 nm (emission).

[4] = system: Human coronary artery endothelial (HCAE) cells; test: Migration of HCAE cells through fibronectin-coated insert toward bFGF; format: cell-based; settings: bFGF 10 ng/ml, 22 h
Description: as §1

[5] = system: Human coronary artery endothelial (HCAE) cells; test: Migration of HCAE cells through fibronectin-coated insert toward PDGF; format: cell-based; settings: PDGF 10 ng/ml, 22 h
Description: (§2) The design of experiments to measure invasion and migration of endothelial cells toward the angiogenic factor PDGF (platelet-derived growth factor-BB) is shown in FIGS. 7A and 8A respectively. The standard assay used 5×10^4 cells added to the top of the insert in […] of medium. The lower portion of the apparatus contained 750 μl of medium, plus or minus PDGF. […] Transmembrane cell invasion and migration assays were performed using BD FluoroBlok inserts coated with BD Matrigel Matrix (a biologically active basement membrane preparation) or with fibronectin (BD Bioscience, Bedford, Mass.), respectively. […] PDGF [10 ng/ml] (R&D System, Minneapolis, Minn. (PDGF) or medium alone (CTR) were added to the lower chamber of the insert plate as a chemoattractant. The cells were allowed to invade or migrate for 22 hours. Cells were labeled post invasion or post migration with Calcein AM (4 μg/ml) and the fluorescence of the cells that invaded through the BD Matrigel Matrix or migrated to the underside of the insert membrane was measured using a plate reader at 485 nm (excitation) and 530 nm (emission).

[6] = system: Human coronary artery endothelial (HCAE) cells; test: Invasion of HCAE cells through Matrigel toward PDGF; format: cell-based; settings: PDGF 10 ng/ml, 22 h
Description: as §2

Chain of AC-23 (as listed by the source): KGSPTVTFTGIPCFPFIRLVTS
Chain of 23C53 (as listed by the source): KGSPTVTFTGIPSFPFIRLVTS

- Specific binding of biotin-conjugated thrombin to 23C53 [1]: bind specifically
- Specific binding of biotin-conjugated thrombin to AC23 [2]: bind specifically
Molecule: thrombin

Molecule: bFGF: basic fibroblast growth factor, angiogenic factor (R&D System)
- bFGF-induced endothelial cell invasion, % of invasion with control medium (CTR) [3]: ~170%
- Increase of endothelial cell migration by bFGF compared to control medium not containing bFGF [4]: ~40%

B1: PDGF: platelet-derived growth factor-BB, angiogenic factor (R&D System) (protein, UniProt P01127 82-190, looked up)
Platelet-derived growth …: SLGSLTIAEPAMIAECKTRTEVFEISRRLIDRTNANFLVWPPCVEVQRCSGCCNNRNVQCRPTQVQLRPVQVRKIEIVRKKPIFKKATVTLEDHLACKCETVAAARPVT
- Effect of PDGF on endothelial cell migration compared to control (CTR) [5]: no effect
- Effect of PDGF on endothelial cell invasion compared to control medium without PDGF [6]: no effect
